Reference: US20200347347A1, “COMPOSITIONS AND METHODS FOR IMPROVED GAMETE VIABILITY AND FUNCTION” (Premium Genetics [UK] Ltd., priority 2017, published 2020)

How the values were obtained:
[1] = test system: sperm cells; assay: Progressive motility of extended ejaculate stored at 19° C. (CASA); assay type: cell-based, bovine; details: SVFEM supplemented with 3 mM NaF normalized to 0 mM NaF; 24 hours; N=8
Method: Progressive motile % was determined using a CASA system. N=10 paired ejaculates.
Ejaculate extension and Incoming Quality Assessment: The volume of the ejaculate was determined using a serological pipette and evenly divided into two tubes. Immediately, within 15 minutes, the SVFEM extender was added in a 1:1 ratio to the SVFEM extended half of the split ejaculate. […] On arrival, GTLS antibiotic solution was added at a 2% v/v of ejaculate.
Within 45 minutes of initial ejaculate collection, the cell concentration and incoming motility parameters were collected. Concentration was determined using a Nucleocounter SP-100™ with Reagent S100 and SP100 cassettes (ChemoMetec Allerod, Denmark). Motility characteristics were calculated by diluting 10 μL sample in 990 μL motility diluent and reading 7 frames each in 2 chambers of Leja 4 chamber capillary slides with a known chamber depth on a Hamilton Thorne IVOS II using HTCasa II software at 60 Hz frame capture speed in a 37° C. enclosed stage with a Zeiss 1× objective.

[2] = test system: sperm cells; assay: Outgoing quality control: progressively motile cells per straw after freeze-thaw; assay type: cell-based, bovine; details: NaF 0-6 mM in SVFEM
Method: After 90 minutes of equilibration at 4° C. the samples were cryoprotected by adding TRIS B (which contains glycerol) to a final concentration of 20% v/v of sample in 3 separate additions, 15 minutes apart. The concentration of progressively motile cells was determined using the Hamilton Thorne IVOS II with HTCasa Animal Breeders II software set to the same capture settings listed above, but with a Xenon light source and an Olympus 10× UplanSApo objective. The cryoprotected sample was diluted to final live, motile cell concentration, 2.5 M/mL, in Packaging Extender and placed in Mini Straws which hold 0.25 mL volume (IMV technologies, Maple Grove, Minn. USA) using an MX4 straw filling and sealing machine (IMV technologies, Maple Grove, Minn. USA). Filled straws were rapidly cooled using a freeze tunnel before storage in liquid nitrogen.
Outgoing Quality Control Assessment: To assess the number of motile cells that survived the freezing process a single straw is thawed in a 37° C. water bath for 45 seconds. The straw is then plunged into a pre-warmed Eppendorf tube. The sample is then gently vortexed 10 seconds to homogenize the sample. After which 20 μLs of sample is added to 20 μLs of QC diluent, gently vortexed for 5 seconds, and read on the CASA fluorescent settings described above.

[3] = test system: sperm cells; assay: Motility of semen samples after 24-hour storage in media (Examples 4-7, 10, 11); assay type: cell-based, Angus bull; details: Example 10; samples stored for 24 hours
Method: Semen sample creation: The media of Example 1 is mixed with semen in a 1:1 volume ratio. Optimal performance is seen when the media was warmed to 37° C. prior to mixing with Angus bull semen, and when the media is added to semen between 10 and 30 minutes post-ejaculation. The media remains effective, however, when mixed with cells 1 hour after ejaculation. After the addition of the media, cells are stored at 19° C. […] In FIG. 33 p=0.017, in a paired t-test. […] Semen samples from Angus bulls (n=4) were taken and tested at the collection, then after storing in the media of Example 1 (SVFEM) for 24 hours. […] Another test was performed to compare samples after 24-hour storage. Semen samples from Angus bulls (n=10) were taken and combined with media. Samples using the inventive media SVFEM were compared to control samples using conventional media. Samples were analyzed to determine whether motility of cells was lost due to storage.

| Molecule | fall of % progressive motile cells after staining below paired SVFEM group [1] | number of motile cells which survive a freeze/thaw after 24 hours' extension [2] | effect of eliminating the ingredient from SVFEM on motility [3] |
| --- | --- | --- | --- |
| [F-].[Na+] [NaF, sodium fluoride] | at least 20% | improved efficacy |  |
| phosphatidylserine [PS] |  |  | drop in motility |
